Results published in US11472771B2, “Process for making amino diaryl ethers and amino diaryl ethers hydrochloride salts” (CELLESTIA BIOTECH AG, priority 2018, dated 2022).

Assays:
Type in all cases: physicochemical
[1] = Stability study, storage −20° C.
Method: (§1) For 6-(4-(tert-butyl)phenoxy)pyridin-3-amine monohydrochloride two different types of stability studies were performed including short-term and long-term stability studies, respectively, at 25° C. (RH, 60%), −5° C. and −20° C. for 36 months and an accelerated study at 40° C. (RH, 75%) over 6 months. In terms of analytical determinations six tests were involved including appearance, assay free base mean and purity mean, water, IR and XRPD. Appearance was determined by visual inspection. The product should be a white or off-white powder. Water content was determined according to USP <921> coulometric method. Identification of 6-(4-(tert-butyl)phenoxy)pyridin-3-amine monohydrochloride by IR spectroscopy was done according to USP <197>, comparing the spectrum obtained to that of the reference standard. X-Ray powder diffraction (XRPD) was performed according to USP <941> against the reference XRPD spectrum. Purity and assay of free base was done by HPLC-UV. Two methods were used. Mobile phases in the first method were water and acetonitrile. Mobile phases in the second method were water (0.5 mL of trifluoroacetic acid was added to 1000 mL of water) and acetonitrile (0.4 mL of trifluoroacetic acid was added to 1000 mL of acetonitrile). Equipment and chromatographic conditions for identification and determination of purity and assay of the 6-(4-(tert-butyl)phenoxy)pyridin-3-amine monohydrochloride by HPLC-UV according to the first method and the second method, respectively, are shown in Tables 5 and 6. [table] [table]

[2] = Stability study, storage 25° C., 60% rh
Method: as §1

[3] = Accelerated stability study, storage 40° C., 75% rh; details: 6 months stability studies
Method: as §1

[4] = Forced degradation: solid state with thermal stress
Method: Instrumentation: • Light stability chamber: Solarbox 1500e • Oven: Salvis Vacuum drying oven VC-20 • Heating unit: Ikamag RET-GS with IKA ETS SD and stainless steel heating block • Vials: Supelco V-Vials and screw caps with PTFE septa • Gas tight vials: Agilent 10 mL HS-GC clear glass vials and crimp caps with Not applicable PTFE septa • Quartz glass cuvette: Hellma precision cuvette Suprasil, Type 117.100-QS, 10 mm path length, screw capped with silicone septa • HPLC: As described above
The HPLC test method described above was used to determine the assay and purity of 6-(4-(tert-butyl)phenoxy)pyridin-3-amine monohydrochloride before the forced degradation experiments and the area % content of individual impurities and degradation products in the 6-(4-(tert-butyl)phenoxy)pyridin-3-amine monohydrochloride samples obtained from the degradation experiments.
The assay and the purity of 6-(4-(tert-butyl)phenoxy)pyridin-3-amine monohydrochloride were determined using HPLC with UV detection at 220 nm utilizing the area normalization methodology for purity determination and external standard calibration for assay determination. During all experiments the UV spectra from 200 nm to 950 nm have been recorded and also the peak purity of 6-(4-(tert-butyl)phenoxy)pyridin-3-amine monohydrochloride was assessed.
Approximately 20.4 mg and 50.1 mg of 6-(4-(tert-butyl)phenoxy)pyridin-3-amine monohydrochloride were weighed into a Supelco V-Vial. The vial was closed with the screw cap and stored in the heating block of the heating unit operated at 100° C.±5° C. for 20 h (20 mg sample) and 68 h (50 mg sample), respectively.
After storage at 100° C. for the intended time each sample was cooled down to room temperature and the content of the vial was dissolved in about 4 mL of the sample solvent (acetonitrile/water 3:1 v/v). The obtained solution was quantitatively transferred into a 25 mL volumetric flask (20 mg sample), or to a 50 mL volumetric flask (50 mg sample), respectively. […]

[5] = 6 months stability studies, 3 mths
[6] = 6 months stability studies, 6 mths
[7] = 6 months stability studies, Release data
[8] = 36 months stability studies, 6 mths
[9] = 36 months stability studies, 9 mths
[10] = 36 months stability studies, 12 mths
[11] = 36 months stability studies, 18 mths
[12] = 36 months stability studies, 24 mths
[13] = 6 months stability studies, 25° C., 60% rh, 3 mths
[14] = 6 months stability studies, 25° C., 60% rh, 6 mths
[15] = 6 months stability studies, 25° C., 60% rh, Release data
[16] = 36 months stability studies, 25° C. 60% rh, 6 mths
[17] = 36 months stability studies, 25° C. 60% rh, 9 mths
[18] = 36 months stability studies, 25° C. 60% rh, 12 mths
[19] = 36 months stability studies, 25° C. 60% rh, 18 mths
[20] = 36 months stability studies, 25° C. 60% rh, 24 mths

Assay free base, mean [1, 5]: 86.1 % m/m
IR, conforms to reference [1, 5]: complies
Purity, mean [1, 5]: 99 % area
Water [1, 5]: 0.02 % m/m
Assay free base, mean [1, 6]: 87.3 % m/m
IR, conforms to reference [1, 6]: complies
Purity, mean [1, 6]: 99 % area
Water [1, 6]: 0.02 % m/m
Assay free base, mean [1, 7]: 89.4 % m/m
IR, conforms to reference [1, 7]: complies
Purity, mean [1, 7]: 100 % area
Water [1, 7]: 0.01 % m/m
Water ([1]; 36 months stability studies, 3 mths): 0.02 % m/m
Assay free base, mean [1, 8]: 87.4 % m/m
Purity, mean [1, 8]: 100.0 % area
Water [1, 8]: 0.02 % m/m
Assay free base, mean [1, 9]: 88.6 % m/m
Purity, mean [1, 9]: 100.0 % area
Water [1, 9]: 0.03 % m/m
Assay free base, mean [1, 10]: 87.5 % m/m
Purity, mean [1, 10]: 100.0 % area
Water [1, 10]: 0.02 % m/m
Assay free base, mean [1, 11]: 87.4 % m/m
Purity, mean [1, 11]: 100.0 % area
Water [1, 11]: 0.01 % m/m
Assay free base, mean [1, 12]: 87.4 % m/m
Purity, mean [1, 12]: 100.0 % area
Water [1, 12]: 0.02 % m/m
Water ([1]; 36 months stability studies, Release data): 0.01 % m/m
Assay free base, mean [2, 13]: 88.8 % m/m
IR, conforms to reference [2, 13]: complies
Purity, mean [2, 13]: 99.5 % area
Water [2, 13]: 0.01 % m/m
Assay free base, mean [2, 14]: 87.2 % m/m
IR, conforms to reference [2, 14]: complies
Purity, mean [2, 14]: 98.8 % area
Water [2, 14]: 0.01 % m/m
Assay free base, mean [2, 15]: 87.0 % m/m
IR, conforms to reference [2, 15]: complies
Purity, mean [2, 15]: 99.2 % area
Water [2, 15]: 0.02 % m/m
Water ([2]; 36 months stability studies, 25° C. 60% rh, 3 mths): 0.01 % m/m
Assay free base, mean [2, 16]: 88.6 % m/m
Purity, mean [2, 16]: 100.0 % area
Water [2, 16]: 0.01 % m/m
Assay free base, mean [2, 17]: 88.0 % m/m
Purity, mean [2, 17]: 100.0 % area
Water [2, 17]: 0.02 % m/m
Assay free base, mean [2, 18]: 86.9 % m/m
Purity, mean [2, 18]: 100.0 % area
Water [2, 18]: 0.02 % m/m
Assay free base, mean [2, 19]: 87.7 % m/m
Purity, mean [2, 19]: 100.0 % area
Water [2, 19]: 0.02 % m/m
Assay free base, mean [2, 20]: 87.6 % m/m
Water [2, 20]: 0.02 % m/m
Purity, mean ([2]; 36 months stability studies, 25° C. 60% rh, 24 mths, monohydrochloride): 100 % area
Water ([2]; 36 months stability studies, 25° C. 60% rh, Release data): 0.02 % m/m
Assay free base, mean ([3]; 3 mths): 89.2 % m/m
IR, conforms to reference ([3]; 3 mths): complies
Purity, mean ([3]; 3 mths): 99.6 % area
Water ([3]; 3 mths): 0.01 % m/m
Assay free base, mean ([3]; 6 mths): 87.4 % m/m
IR, conforms to reference ([3]; 6 mths): complies
Purity, mean ([3]; 6 mths): 98.9 % area
Water ([3]; 6 mths): 0.02 % m/m
XRPD, conforms to reference ([3]; 6 mths): complies
Assay free base, mean ([3]; Release data): 87.0 % m/m
IR, conforms to reference ([3]; Release data): complies
Purity, mean ([3]; Release data): 99.2 % area
Water ([3]; Release data): 0.02 % m/m
stability in solid state ([4]; 100° C.): stable
changes in the purity and the purity profile ([4]; solid state, after 68 h storage at 100° C.): No significant changes
decrease in the assay ([4]; solid state, storage at 100° C., accepted variability of the method ±2%): ≤ 2%
Structure (SMILES): CC(C)(C)c1ccc(Oc2ccc(N)cn2)cc1.Cl [6-(4-(tert-butyl)phenoxy)pyridin-3-amine monohydrochloride]
